This assay has as its target Delta-type opioid receptor (Cavia porcellus). The assay is described as follows: Binding affinity against delta opioid receptor of Guinea pig brain homogenate using [3H]c[D-Pen2,p-Cl-Phe4,D-Pen5]enkephalin.

Molecules are shown by their SMILES. *1 amine or outer side, *2 acyl side, *3 side chain or, on linkers, in order; H or OH if unused. Where a SMILES comes first, the peptide text is derived from it. Side-chain parts run from the residue outwards. [ ]: non-standard residue; d: D form. X4 = CC(C)C[C@@H](CN([C@@H](CCCN=C(N)N)C(=O)[*:2])[*:1])N[*:3]

As to `CC[C@H](C)[C@H](NC(=O)[C@H](CCCN=C(N)N)NC[C@H](CCCCN)NC(=O)[C@H](CC(C)C)NC(=O)[C@H](Cc1ccccc1)NC(=O)CNC(=O)CNC(=O)[C@@H](N)Cc1ccc(O)cc1)C(=O)N[C@@H](CCCN=C(N)N)C(=O)N1CCC[C@H]1C(=O)N[C@@H](CCCCN)C(N)=O`, the IC50 (commonly the midpoint of a concentration-inhibition curve) is 53 nM. This counts as double-digit nanomolar.
In turn, `CC[C@H](C)[C@H](NC(=O)[C@H](CCCN=C(N)N)NC(=O)[C@H](CCCN=C(N)N)NC(=O)[C@H](CC(C)C)NC(=O)[C@H](Cc1ccccc1)NC(=O)CNC(=O)CNC[C@@H](N)Cc1ccc(O)cc1)C(=O)N[C@@H](CCCN=C(N)N)C(=O)N1CCC[C@H]1C(=O)N[C@@H](CCCCN)C(N)=O` registered an IC50 of 198 nM.
In the case of `CC[C@H](C)[C@H](NC(=O)[C@H](CCCN=C(N)N)NC(=O)[C@H](CCCN=C(N)N)NC[C@H](CC(C)C)NC(=O)[C@H](Cc1ccccc1)NC(=O)CNC(=O)CNC(=O)[C@@H](N)Cc1ccc(O)cc1)C(=O)N[C@@H](CCCN=C(N)N)C(=O)N1CCC[C@H]1C(=O)N[C@@H](CCCCN)C(N)=O` (H-[X4]([Phe-Gly-Gly-Tyr])RIRPK-NH2) it was 32 nM.

Source of the values: BindingDB's records for doi:10.1021/jm00018a006 (University of Arizona, 1995).
